Experimental data reported in ChEMBL document CHEMBL1135253, “Formation of thomasidioic acid from dehydrosinapinic acid dilactone under neutral conditions, and a remaining inhibitory activity against peroxynitrite-mediated protein nitration” (Bioorg Med Chem Lett, 2002).

How the values were obtained:
[1] = Inhibitory activity of compound was tested against peroxinitrite in collagen type I with concentration 50 uM of each sample was treated with 1.0 mM peroxynitrite
[2] = Inhibitory activity of compound was tested against peroxinitrite in collagen type I at concentration 100 uM of each sample was treated with 1.0 mM peroxynitrite
[3] = Inhibitory activity of compound was tested against peroxinitrite of collagen type I with concentration 50 uM of each sample was treated with 1.0 mM peroxynitrite

| SMILES | Activity [1] | Activity [2] | Activity [3] |
| --- | --- | --- | --- |
| COc1cc(/C=C/C(=O)O)cc(OC)c1O | 1 | 0.3 | – |
| COc1cc(/C=C(C(=O)O)\C(=C/c2cc(OC)c(O)c(OC)c2)C(=O)O)cc(OC)c1O | 0.25 | – | – |
| COc1cc([C@H]2c3c(cc(OC)c(O)c3OC)C=C(C(=O)O)[C@@H]2C(=O)O)cc(OC)c1O | – | – | 0.7 |
